The text below walks through data of patent US12637498B2, “PDLIM2 as a biomarker for cancer and as an anti-cancer treatment target” (UNIVERSITY OF PITTSBURGH—OF THE COMMONWEALTH SYSTEM OF …, priority 2019, dated 2026).

The nature of data set [1]: Toxicity: animal body weight and H&E staining of major organs. It is filed as in vivo, mouse. The settings on record: mice with lung cancer; 1 mg/kg of 5-aza-dC and MS-275 twice per week for 6 weeks.
The test system of data set [2] is PDLIM2. As to the kind of experiment: qPCR analysis of PDLIM2 expression in human lung cancer cell lines. It counts as cell-based. In general terms: In qPCR the cycle at which signal appears reflects the starting amount.
Data set [3] has as its system human lung cancer cells. As to the kind of experiment: Cell growth assays. It is filed as cell-based. As for the experimental part:
Cells were seeded into 12-well plates at a density of 5,000 cells per well, in the presence or absence of the indicated treatment. Cell density was determined by replacing the medium with 2 μmol/L of calcein AM in 1× dissociation solution (Trevigen) at the indicated time points. After 1 h of incubation, diesterase activity (relative fluorescence units) was measured with a Tecan Infinite 200 Microplate Reader, using an excitation wavelength of 485 nm and emission wavelength of 520 nm.

In data set [4] the test system is PD-L1. As to the kind of experiment: IHC staining of PD-L1 in lung cancer (urethane model). It is filed as in vivo, mouse. The settings on record: carboplatin and paclitaxel (chemotherapy). As for the experimental part: (§1) Urethane model: 6-8-week-old mice under FVB/N background were intraperitoneally (i.p.) injected with urethane (1 g/kg body weight, Sigma-Aldrich, St. Louis, MO, USA) once a week for six weeks. All mice were sacrificed for lung tumor examinations seven (for no drug treatment experiments) or six (for drug treatment experiments) weeks post urethane treatment. For drug treatment experiments, the epigenetic agents 5-aza-dC (1 mg/kg body weight, Sigma-Aldrich, St. Louis, MO, USA) and MS-275 (1 mg/kg body weight, Selleckchem, Houston, TX, USA), chemotherapeutic drugs carboplatin (30 mg/kg body weight, AdipoGen, San Diego, CA, USA) and paclitaxel (15 mg/kg body weight, AdipoGen, San Diego, CA, USA), and/or PD-1 neutralizing antibody (200 μg/mouse, BioXCell, West Lebanon, NH, USA) were i.p injected as indicated in FIG. 4. Surface tumors in mouse lungs were counted by three blinded readers under a dissecting microscope, and tumor diameters were measured by microcalipers. K-Ras^G12D model: 6-8-week-old mice under FVB/N background were intranasally administered 1×10^7 plaque-forming units of Cre-expressing adenovirus (adenocre; Gene Transfer Vector Core, University of Iowa, Iowa City, IA). Three months post AdenoCre treatment, all mice were sacrificed for lung tumor examinations.
Mouse or tissues were excised, fixed in formalin, embedded in paraffin, and cut into […] sections. Sections were stained with H&E, or subjected to sequential incubations with different primary antibodies and peroxidase-conjugated goat anti-rabbit secondary antibodies. The human lung tumor tissue arrays were described previously (Sun et al., Oncogene 35, 2299-2310 (2016)).
Lung tissues were excised, fixed in formalin, embedded in paraffin, and cut into 4-μm-thick sections. Sections were stained with H&E, or subjected to sequential incubations with the indicated primary antibodies, biotinylated secondary antibodies and streptavidin-HRP.

In data set [5] the test system is PD-L1. The data set is described as follows: qPCR of PD-L1 in lung cancer cells. It counts as cell-based, human. An excerpt: Mouse lung tissues and BAL cells were subjected to RNA extraction, RNA reverse transcription and real-time PCR as described (Li et al., Oncoimmunology 7, e1435250 (2018); Sun et al., Bio. Protoc. 7, pii: e2287 (2017)).
The test system of data set [6] is lung cancer induced by urethane. As to the kind of experiment: Urethane model of lung cancer, tumor examination. The settings on record: for tumor number and tumor burden: WT mice, carboplatin and paclitaxel together. It counts as in vivo, mouse. As for the experimental part:
as §1
PDLIM2flx/flx/SP-C-rtTAtg/−/(tetO)7CMV-Cretg/tg (ΔSPC) mice under a pure FVB/N background and PDLIM2−/− mice under a pure BABL/C background have been described before (Sun et al., Nat. Commun. 2019. 10, 5324). For lung carcinogenesis, six to eight week old ΔSPC and wild type FVB/N mice were intraperitoneally (i.p.) injected with urethane (1 mg/g body weight, Sigma-Aldrich, St. Louis, MO, USA) once a week for six consecutive weeks, followed by different treatment as shown in FIGS. 45A and 49A. Mice were sacrificed for lung inflammation and tumor examinations at six weeks post urethane treatment. Surface tumors in mouse lungs were counted blinded under a dissecting microscope, and tumor diameters were measured by microcalipers. […]

Data set [7] has as its system RelA. The data set is described as follows: Subcellular fraction-IB assay of nuclear RelA in lung cancer cells. It is filed as cell-based, human. To be noted: for RelA activation: lung cancer cells.
Data set [8] concerns MDR1. The data set is described as follows: qPCR of MDR1 in A549 lung cancer cells. It counts as cell-based, human. The settings on record: with or without PDLIM2 reconstitution.
The subject of data set [9] is BACH1. As to the kind of experiment: ChIP and nuclear fraction IB of BACH1 in RAW264.7 macrophages. It counts as cell-based, mouse. As for the experimental part:
Cells were collected after formaldehyde treatment. The chromatin DNA was extracted, broken into fragments of 300-1000 bp in length by sonication, and immunoprecipitated with antibodies to the target. IgG was used in immunoprecipitation as a control for nonspecific signal. DNA in the immunoprecipitation product was amplified by PCR.
Whole-cell extracts were prepared by lysing cells in RIPA buffer. Nuclear extracts were prepared by lysing pellets in insoluble nuclear buffer (20 mM Tris, pH 8.0, 150 mM NaCl, 1% [wt/vol] SDS, 1% [vol/vol] NP-40, and 10 mM iodoacetamide) after the cytoplasm was extracted with the hypotonic buffer (20 mM HEPES, pH 8.0, 10 mM KCl, 1 mM MgCl2, 0.1% [vol/vol] Triton X-100, and 20% [vol/vol] glycerol). The purity of the nuclear fractions was confirmed by checking Hsp90 (cytoplasm) or lamin B/C (nuclear fraction). All the lysis buffers were supplemented with 1 mM PMSF and a protease inhibitor cocktail (Roche Molecular Biochemicals). The cell extracts were used for […]. Briefly, the cell extracts were separated on polyacrylamide gels followed by electrotransfer onto nitrocellulose membranes. […] Specific immune complexes were detected by enhanced chemiluminescence as specified by the manufacturer (Western Lightning ECL Pro; Amersham).

Data set [10] has as its system PDLIM2. As to the kind of experiment: qPCR of PDLIM2 in RAW264.7 macrophages. It is filed as cell-based, mouse. The settings on record: RAW264.7 macrophages treated with H2O2. An excerpt:
The indicated tissues or cells were subjected to RNA extraction, RNA reverse transcription and real-time PCR using trizol, reverse transcriptase, and Power SYBR Green PCR Master Mix (Thermo Fisher Scientific, Waltham, MA USA).

Where [11] appears, read: ΔSPC mice vs WT, carboplatin and paclitaxel combination therapy (Chemo).
The mark [12] stands for this setting: ΔSPC mice, PD-1 blockade combined with carboplatin/paclitaxel chemotherapy.

Entries after “also recorded” stand apart in the source; their conditions may differ.

On to `Nc1ncn([C@H]2C[C@H](O)[C@@H](CO)O2)c(=O)n1` [5-aza-dC, 5-azadeoxycitidine], for which the animal body weight entry in data set [1] is “body weight loss”.

For the molecule `CC(/C=C/C(=O)NO)=C\[C@@H](C)C(=O)c1ccc(N(C)C)cc1` [TSA, Trichostatin A], the entries for the “PDLIM2 expression (qPCR)” value in data set [2] (H460 human lung cancer cells) and in data set [2] (human lung cancer cell lines) were “PDLIM2 recovery” and “induced PDLIM2 re-expression”, respectively.

Turning to `CC(=O)O[C@H]1C(=O)[C@@]2(C)[C@H]([C@H](OC(=O)c3ccccc3)[C@]3(O)C[C@H](OC(=O)[C@H](O)[C@@H](NC(=O)c4ccccc4)c4ccccc4)C(C)=C1C3(C)C)[C@]1(OC(C)=O)CO[C@@H]1C[C@@H]2O` [paclitaxel], the “paclitaxel sensitivity (cell growth assays)” value in [3] (A549 cells with PDLIM2 reconstitution, consecutive 9-day paclitaxel cycles) is given as “increased paclitaxel sensitivity”; in [3] (H460 cells with PDLIM2 reconstitution, consecutive 9-day paclitaxel cycles) it was “increased paclitaxel sensitivity”; in data set [3] (H460 human lung cancer cells with stable IκBα expression), “overcame the paclitaxel resistance; also recorded: increased paclitaxel sensitivity”. Besides, the “acquired resistance to paclitaxel” value in [3] (lung cancer cells with ectopic PDLIM2 expression) is given as “overcame the acquired resistance; also recorded: block acquired resistance”. Moreover, in [4], the “PD-L1 expression in lung cancer (IHC staining)” value was “PD-L1 induction”. Further, the “PD-L1 expression (qPCR)” value in [5] (lung cancer cells) was “PD-L1 induction”. Further, the “tumor number and tumor burden” value in [6] is “significant decrease in tumor number and tumor burden”. The “lung cancer treatment (tumor examination)” value in data set [6] (setting [11]) is on record as “more resistant; also recorded: increased resistance”; in [6] (setting [12]) it was “resistant; also recorded: more resistant”. Besides, the “nuclear RelA (subcellular fraction-IB)” value in data set [7] (H460 human lung cancer cells reconstituted with PDLIM2) is “much lower paclitaxel induction of nuclear RelA”. In addition, the RelA activation result in data set [7] was “further induced”; in data set [7] (listed as Paclitaxel), “increased RelA activation”. Besides, in data set [8], the “MDR1 expression (qPCR)” value is reported as “PDLIM2 suppressed paclitaxel induction of MDR1”.

As to `OO` [H2O2], in data set [9] (RAW264.7 macrophages), the “nuclear BACH1 (nuclear fraction IB)” value is reported as “induced BACH1 nuclear translocation; also recorded: increased nuclear BACH1”. In data set [9] (RAW264.7 mouse macrophages, 500 μM, 4 hours), the “BACH1 and Pol II bound to the pdlim2 promoter (ChIP)” value is reported as “detected BACH1 at the BACH1-binding site; also recorded: more BACH1 but less Pol II bound to the pdlim2 promoter”. Further, the “PDLIM2 expression (qPCR)” value in data set [10] is given as “PDLIM2 expression decrease; also recorded: decreased PDLIM2”.

On to `N.N.O=C([O-])C1(C(=O)[O-])CCC1.[Pt+2]` [carboplatin], for which the “PD-L1 expression in lung cancer (IHC staining)” value in [4] was “PD-L1 induction”. For the same molecule, the “PD-L1 expression (qPCR)” value in data set [5] (Calu-6 human lung cancer cells) and in data set [5] (lung cancer cells) was “PD-L1 induction” each time. Also, the “tumor number and tumor burden” value in [6] was “significant decrease in tumor number and tumor burden”. Moreover, the results for the “lung cancer treatment (tumor examination)” value in [6] (setting [11]) and in [6] (setting [12]) were “more resistant; also recorded: increased resistance” and “resistant; also recorded: more resistant”, respectively.
